Experimental data reported in patent US6376536B1, “Quaternary ammonium salts and their use” (Takeda Chemical Industries, Ltd., priority 1998, dated 2002).
Structures can show the parent of a compound that is named as a salt.

What was measured:
HIV-1 BA-L [1] = experiment: Inhibitory effect on HIV-1 infection to MAGI-CCR5 cell; type: cell-based; conditions: Human immunodeficiency virus 1, BAL, 48 h; 0.064 μM Test Compound medium; MAGI-CCR5 cells; 300 PFU HIV-1 BA-L; 2 days; blue cell count
Method: The plasmid where β-galactosidase gene was ligated downstream of HIV-1 LTR was introduced into CD4 positive HeLa cell, to which human CCR5 was further introduced to obtain transformant MAGI-CCR5. By using said transformant MAGI-CCR^5, degree of HIV-1 infection was calculated from β-galactosidase activity (blue color due to decomposition of 5-bromo-4-chloro-3-indolyl-β-D-galactopyranoside). Specifically, MAGI-CCR5 cells were suspended in DMEM medium containing 10% serum to prepare 5×10^4 cells/ml suspension. To each well of 96 well plate was inoculated 200 μl of the suspension, and the cells were cultivated at 37° C. overnight. The medium was removed by means of suction, and to the residue was added 100 μl of the above medium containing 0.064 μM of Test Compound and 100 μl of the above medium containing 300 PFU of HIV-1 BA-L cells. The cells were cultivated at 37° C. for 2 days. The medium was removed by means of suction. To the residue was added 200 μl of cell fixative (PBS containing 1% formaldehyde and 0.2% glutaraldehyde), and the mixture was allowed to stand at room temperature for 5 minutes and washed twice with PBS. […] The number of blue cells was counted by microscope and defined as the number of cells infected with HIV-1.

HIV-1 BA-L [2] = experiment: Inhibitory effect on HIV-1 infection to human PBMC (p24 antigen ELISA); type: cell-based; conditions: Human immunodeficiency virus 1, BAL, 0.032 μM Test Compound solution, p24 antigen in supernatant
Method: From normal person human peripheral blood mononuclear cells (PBMC) were separated, and the cells were stimulated with 10 μg/ml of PHA (Phytohemaglutinin) and 20 U/ml of interleukin-2 (IL-2) for 3 days. The cells were suspended in RPMI-1640 medium containing 20% serum to prepare 1×10 ^6/ml suspension. To the suspension were infected HIV-1 BA-L cells (20 ng as an amount of p24 antigen), and viruses were absorbed at 37° C. for 2 hours. The cells were washed and suspended in RPMI-1640 medium containing 20% serum and IL-2 20 U/ml to prepare 1×10^5/ml suspension. To the PBMC suspension was added the same amount of a solution which contains 0.032 μM of Test Compound, and the cells were cultivated at 37° C. in carbon dioxide gas incubator. The amount of p24 antigen in supernatant of the cultivated medium was determined by enzyme-linked immunosorbent assay (ELISA) and defined as degree of HIV-1 infection.

human CCR5 = biological target: T1, human CCR5 (Homo sapiens, UniProt P51681); experiment: [125I]-RANTES binding inhibition on CHO/CCR5 cells; conditions: Test Compound 1 μM, 100 pM [125I]-RANTES
T1 construct: expressed in transfected cells; plasmid pCKR5 = pcDNA3.1 with about 1.0 kb CCR5 insert
T1 sequence (P51681 whole entry): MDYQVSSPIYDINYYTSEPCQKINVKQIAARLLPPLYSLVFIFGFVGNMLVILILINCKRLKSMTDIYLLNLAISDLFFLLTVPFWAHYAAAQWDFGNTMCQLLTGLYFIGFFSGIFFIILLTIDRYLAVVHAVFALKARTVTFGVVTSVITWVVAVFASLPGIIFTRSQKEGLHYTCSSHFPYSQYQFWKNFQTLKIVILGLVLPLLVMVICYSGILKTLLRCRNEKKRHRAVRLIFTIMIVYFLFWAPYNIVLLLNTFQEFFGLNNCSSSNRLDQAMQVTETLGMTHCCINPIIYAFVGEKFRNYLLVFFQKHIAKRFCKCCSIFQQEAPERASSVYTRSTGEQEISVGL
Method: CHO-K1 cells were grown in 750 ml of tissue culture flask (Becton Dickinson) using Ham's F12 medium (Nihon Pharmaceutical) containing 10% fetal calf serum (Life Tech Oriental) and took off with 0.5 g/L trypsin-0.2 g/L EDTA (Life Tech Oriental). The cells were washed with PBS (Life Tech Oriental), centrifuged (1000 rpm, 5 minutes), and suspended in PBS. With using Gene Pulser (Bio-Rad Laboratories), DNA was introduced into the cells under the conditions shown below. That is, to the cuvette of 0.4 cm gap were added 8×10^6 cells and 10 μg of plasmid pCKR5 for expression of human CCR5, and electroporation was carried out under 0.25 kV of voltage and 960 μF. of capacitance. The cells where transferred into Ham's F12 medium (Nihon Pharmaceutical) containing 10% fetal calf serum, and cultivated for 24 hours. The cells were again took off and centrifuged, and suspended in Ham's F12 medium (Nihon Pharmaceutical) containing 10% fetal calf serum and 500 μg/ml of geneticin (Life Tech Oriental). […] Radioactivity was determined with γ-counter to select CHO/CCR5 cells which specifically bind to the ligand.
The CHO/CCR5 were inoculated on 96 well microplate (5×10^4 cells/well) and cultivated for 24 hours. […] Radio-activity was determined with TopCount Micro Scintillation Counter (Packard Instrument, Inc.). […]

CCOc1ccc(-c2ccc3c(c2)C=C(C(=O)Nc2ccc(C[N+](C)(C)C4CCOCC4)cc2)CCO3)cc1 (as salt: chloride) [Compound 3, N-(4-(((7-(4-ethoxyphenyl)-2,3-dihydro-1-benzoxepin-4-yl)carbonyl)amino)benzyl)-N,N-dimethyl-N-(4-tetrahydropyranyl)ammonium chloride]
melting point: 200 to 204 °C

Cc1ccc(-c2ccc3c(c2)C=C(C(=O)Nc2ccc(C[N+](C)(C)C4CCOCC4)cc2)CCC3)cc1 [Compound 1, N,N-dimethyl-N-(4-(((2-(4-methylphenyl)-6,7-dihydro-5H-benzocyclohepten-8-yl)carbonyl)amino)benzyl)-N-(4-tetrahydropyranyl)ammonium chloride]
inhibition at 0.064 µM (HIV-1 BA-L [1]): 100% | inhibition at 0.032 µM (HIV-1 BA-L [2]): 74%

Cc1ccc(-c2ccc3c(c2)C=C(C(=O)Nc2ccc(C[N+](C)(C)C4CCC(=O)CC4)cc2)CCO3)cc1.[Cl-] [Compound 2]
Inhibition Rate (%) to CCR5 binding (human CCR5): 96%
